Among the data in the supplement of paper PMC10307832 are relative viability values, retold here.

Common to all, as to experiment: relative viability (nuclei count vs DMSO), 5 days (fraction); higher = more cells survive
Compound in the assay “Irinotecan + Trametinib”: CCc1c2c(nc3ccc(OC(=O)N4CCC(N5CCCCC5)CC4)cc13)-c1cc3c(c(=O)n1C2)COC(=O)[C@]3(O)CC [Irinotecan] + CC(=O)Nc1cccc(-n2c(=O)n(C3CC3)c(=O)c3c(Nc4ccc(I)cc4F)n(C)c(=O)c(C)c32)c1 [Trametinib] (partner 0.02 µM)
The gist of the method: (§1)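 Lung cancer cell lines in 1536-well plates were dosed by pin tool the day after seeding, either with one drug alone or with a fixed anchor-drug dose plus five library-drug doses (not always all listed) in √10 steps. After 5 days, cells were fixed and their nuclei stained in one step (final 0.05% Triton X-100, 1% formaldehyde, 1 ug/ml Hoechst), then counted on 4× images. Relative viability is the nuclei count in treated wells divided by that in vehicle wells. Values are medians of duplicate plates.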

Compound in the assay “MK-8033 + Olaparib”: Cn1cc(-c2cnc3ccc4ccc(CS(=O)(=O)NCc5ccccn5)cc4c(=O)c3c2)cn1 [MK-8033] + O=C(c1cc(Cc2n[nH]c(=O)c3ccccc23)ccc1F)N1CCN(C(=O)C2CC2)CC1 [Olaparib] (partner 8 µM)
The gist of the method: as §1

Compound in the assay “MK-8033 + Navitoclax”: Cn1cc(-c2cnc3ccc4ccc(CS(=O)(=O)NCc5ccccn5)cc4c(=O)c3c2)cn1 [MK-8033] + CC1(C)CCC(c2ccc(Cl)cc2)=C(CN2CCN(c3ccc(C(=O)NS(=O)(=O)c4ccc(N[C@H](CCN5CCOCC5)CSc5ccccc5)c(S(=O)(=O)C(F)(F)F)c4)cc3)CC2)C1 [Navitoclax] (partner 0.5 µM)
An outline of the steps:
as §1

Compound in the assay “RU-SKI 43 + OSI-027”: CC[C@@H](C)CNCC(=O)N1CCC2=C([C@@H]1COC3=CC=CC(=C3)C)C=CS2 [RU-SKI 43] + COc1cccc2cc(-c3nc([C@H]4CC[C@H](C(=O)O)CC4)n4ncnc(N)c34)[nH]c12 [OSI-027] (partner 0.5 µM)
The gist of the method:
as §1

As for UMC-11, the relative viability is 0.32 with Irinotecan + Trametinib (first compound 0.6325 µM); 0.539 with Irinotecan + Trametinib (first compound 2 µM); 0.29 in the assay with Irinotecan + Trametinib (first compound 6.325 µM); 0.216 in the assay with Irinotecan + Trametinib (first compound 20 µM); 0.449 with MK-8033 + Olaparib (first compound 0.02 µM); 0.375 in the assay with MK-8033 + Olaparib (first compound 0.06325 µM). Further, the relative viability in the assay with MK-8033 + Olaparib (first compound 0.2 µM) is 0.353; with MK-8033 + Olaparib (first compound 0.6325 µM), 0.405; with MK-8033 + Olaparib (first compound 2 µM), 0.37; with MK-8033 + Navitoclax (first compound 0.02 µM) it was 0.306; in the assay with MK-8033 + Navitoclax (first compound 0.06325 µM) it was 0.265; with MK-8033 + Navitoclax (first compound 0.2 µM), 0.287. Also, the relative viability with MK-8033 + Navitoclax (first compound 0.6325 µM) was determined as 0.28; in the assay with MK-8033 + Navitoclax (first compound 2 µM), 0.332; with RU-SKI 43 + OSI-027 (first compound 0.1 µM), 0.534; with RU-SKI 43 + OSI-027 (first compound 0.3162 µM) it was 0.631; with RU-SKI 43 + OSI-027 (first compound 1 µM), 0.492; with RU-SKI 43 + OSI-027 (first compound 3.162 µM), 0.5. Also, in the assay with RU-SKI 43 + OSI-027 (first compound 10 µM), the relative viability turned out to be 0.463.
